In one assay the test system is CAR-γδT cells. In words: Effect of MTX concentration on proliferation of CAR-γδT cells in vitro (AOPI counting). Format: cell-based, human. How it is done:
50 mL of fresh peripheral blood of volunteers was extracted, mixed with lymphocyte separation medium, and then peripheral blood mononuclear cells (PBMC) were separated by density gradient centrifugation. The isolated lymphocytes were overnight cultured in RPMI 1640 medium, supplemented with L-glutamine (2 mM, Sigma-Aldrich), penicillin (100 IU/mL)/streptomycin (100 μg/mL) (Sigma-Aldrich, Missouri, USA), 10% serum (Gibco, Massachusetts, USA), zoledronic acid (5 μM, Actavis, New Jersey, USA), IL-2 (100 IU/mL; Aldesleukin, Novartis, Frimley, UK). The γδT cells selected above were transduced with lentiviral vector expressing an anti-CLL1 CAR and DHFR L22F/F31S at a multiplicity of infection (MOI) of 5. After 48 hours of transduction, IL-2 (100 IU/mL) was added every 2-3 days to expand T cells expressing the anti-CLL1 CAR (hereinafter referred to as CAR-γδT cells).
Cultured with the addition of methotrexate (MTX) at the concentrations of 0 μM, 0.01 μM, 0.05 μM, 0.1 μM, 1 μM, or 2 μM, the cell number of LUCAR-20SD cells at day0 day3 day6 day9, day 12, and the cell number of CAR-γδT cells at day0 day2 day5 day7 were counted by AOPI. Cell proliferation curves were plotted separately.

For assay [1], the system named is untransduced T cells (UnT). In words: In vitro mixed lymphoid (MLR) model with LUCAR-20SD cells, UnT and Raji cells: host UnT cells. Format: cell-based, human. Conditions: 0.05 μM, 1 μM, 2 μM MTX. How it is done:
To evaluate the ability of LUCAR-20SD cells to tolerate allogeneic T cell rejection, an in vitro mixed lymphoid (MLR) model was established.
Using the T cells from a random healthy donor (B donor), LUCAR-20SD cells were prepared following the method in Example 1, as the graft cells. Un-transduced T cells (UnT) from another random healthy donor (Adonor) were also prepared, as the host cells.
The cell density of CD20 positive cells (lymphoma cell lines Raji, ATCC, CCL-86) was adjusted to 1×10^6 cells/mL. Raji cells were treated with 20 μg/mL mitomycin at 37° C. for 3 h, washed three times with 10 mL DPBS, and were resuspended in the culture medium. 20×10^6 untransduced T cells (UnT, T cell donor A), 1×10^6 LUCAR-20SD cells (T cell donor B), and 5×10^6 treated lymphoma cells Raji were mixed and cultured in the medium. The cell mixture was divided into 4 groups, and 0 μM MTX, 0.05 μM MTX, 1 μM MTX, or 2 μM MTX was added, respectively. […] According to the formula: fold change of cell number (UnT)=[cell number counted by AOPI×(CAR-CD5+%)]/20, fold change of cell number (LUCAR-20SD cells)=[cell number counted by AOPI×(CAR+CD5+%)]/1, the cell proliferation curves of UnT and LUCAR-20SD cells were plotted.

Another assay concerns LUCAR-GC cells. In words: Expansion of transplanted LUCAR-GC cells in peripheral blood of NUGC4 xenograft mice (hCD45+%/live). Format: in vivo, NCG immunodeficient mice; human cells. Conditions: 22.635 mg/kg MTX i.p. From the text: Severely immunodeficient NCG mice were used for in vivo efficacy evaluation. On day −14 before treatment, NCG immunodeficient mice were inoculated subcutaneously with tumor cells (3×10^6 human gastric cancer cells NUGC4/mouse). The xenografted mice were divided into 5 groups ([…], G3, G4 and G5) on day 0, and received a single intravenous injection of HBSS (G1, G5), untransduced T cells (UnT) (G2, at a dose of 3.6×10^6 cells/mouse), LUCAR-GC cell preparation (G3 and G4, at a dose of 1×10^6 CAR+ cells/mouse). Mice in G4 and G5 groups were additionally given 22.635 mg/kg MTX by intraperitoneal injection on day5, day10, day 15, day20, day25, day30, day35, respectively. […] During the experiment, animal status, survival, tumor volume and body weight were measured twice a week. Blood was collected from the mouse eyeballs every week to separate cells, and then resuspended in DPBS with 1 μL of FITC anti human CD45 (Biolegend, 304038). The proportion of transplanted cells (hCD45+%/live) in the peripheral blood of mice was counted.
A general note: A xenograft is tissue or cells of one species grown in another, often human tumour cells in immunodeficient mice.

Regarding `CN(Cc1cnc2nc(N)nc(N)c2n1)c1ccc(C(=O)N[C@@H](CCC(=O)O)C(=O)O)cc1` [MTX, methotrexate], the “proliferation of CAR-γδT cells compared with 0 μM MTX” value with CAR-γδT cells (0.01 μM to 0.1 μM MTX, day 7, p>0.05) was “not significantly different”; in the assay on CAR-γδT cells (1 μM MTX and 2 μM MTX, day 7, p<0.05, dose-dependent) it was “significantly decreased”. Moreover, the minimal effective concentration in the assay with CAR-γδT cells (Homo sapiens, 168 h, day 7, read-out: MTX concentration that affects the proliferation of CAR-γδT cells) was at least 1 µM. The “fold change of cell number (UnT)” value in assay [1] (day 1 to day 13) was “less than 1”. Besides, the “proliferation of UnT cells” value in assay [1] (mixed culture with LUCAR-20SD and Raji cells) is recorded as “significantly inhibited”. Further, in the assay on LUCAR-GC cells, the “expansion of LUCAR-GC cells in peripheral blood, presence or absence of MTX” value is reported as “no significant difference in the expansion of LUCAR-GC cells”.

The values are drawn from patent publication US20260345609A1, “METHODS FOR PROMOTING PERSISTENCE OF CELL THERAPY” (Legend Biotech Ireland Limited, priority 2022, published 2026).
